*: point of attachment. NHNH2 = NN*
Columns and labels:
[1] = test system: A549 cells expressing EGFP; test: Cas9-RNP delivery against EGFP (gene editing, plate reader), A549; assay type: cell-based; settings: A549 cells
Experimental: To generate an EGFP expressing HeLa cell line, HeLa cells were transfected with EGFP pDNA (pEGFP-C1, Clontech) and stable transfectants were selected with 400 μg/mL of G-418 (Millipore). Green clones were selected by epifluorescence microscopy and tested for EGFP expression stability through several passages. […] All other EGFP-expressing cell lines were obtained in a similar way from parent non-EGFP-expressing cell lines.
Cells expressing EGFP were seeded in a 96 well plate the day before the experiment at a concentration of 50,000 cell/mL (100 μL/w) in DMEM+10% FBS+1% Gln-Abt. For robotic library screening, the delivery of Cas9-RNP against EGFP (RNP designed to knock-out the gene encoding for the enhanced green fluorescent protein (EGFP)) was performed. For RNP assembly, 9.2 μL of crRNA and 9.2 μL of tracrRNA were mixed in 211.6 μL of Nuclease-Free Duplex Buffer (IDT), incubated for 5 min at 95° C. and slowly cooled at rt (see I. Lostalé-Seijo, et al. Peptide/Cas9 nanostructures for ribonucleoprotein cell membrane transport and gene edition, Chem. Sci., 2017). Cas9 protein was dissolved in DMEM at a final concentration of 4 μM and equal volumes of the RNA complex and Cas9 were mixed and incubated for 5 min at rt. 75 μL of the corresponding amphiphile concentrations were added to 5 μL of RNP at 2 μM. The mixture was shaken for 30 min at room temperature before the addition to the cells. The cell medium was aspirated, and cells were washed twice with PBS. Cells were covered with 30 μL of DMEM and 20 μL of the RNP/amphiphile complexes were added to the cells (final peptide concentrations=2.5, 5 and 10 μM; final Cas9-RNP concentration=50 nM) and incubated for 4 h. After the incubation, the medium was replaced by 100 μL of fresh DMEM supplemented with 10% FBS. The total EGFP fluorescence was quantified after 72 h in a plate reader (FIG. 2, Table 1 (right) and Table 6). All experiments were done in triplicate.
(§1) Tables 1-7: RLuc (pDNA) or EGFP (mRNA) expression levels were normalized to Lipofectamine reagents (value=1) and expressed as fold-times signal increase. In the case of siRNA, the siRNA treated cells fluorescence was compared with siMOCK control fluorescence, while Cas9-RNP mediated knockout was measured against the fluorescence of untreated cells. In both siRNA and Cas9-RNP, values are expressed as % fluorescence reduction. Amphiphile concentration was 5 μM in all cases. All experiments were performed in triplicate.
Tables 26-31 show the mean (triplicates) percentage of gene editing, accounted by GFP fluorescence intensity decrease (% of reduction), measured after the transfection of Cas9-RNP by different amphiphiles at different concentrations in a variety of cell lines. Background values, accounted by untreated control cells, were subtracted for processing.

A549 cells = test: EGFP mRNA delivery, robotic library screening, A549; assay type: cell-based
Experimental: Cells were seeded in a 96 well plate the day before the experiment at a concentration of 50,000 cell/mL (100 μL/w) in DMEM+10% FBS+1% Gln-Abt. For robotic library screening, the delivery of EGFP-mRNA (from TriLink, fully substituted with 5-methoxyuridine, capped and polyadenylated; TriLink, CleanCap® EGFP mRNA (5moU), ref. L-7201) in six different cell lines was performed. Amphiphilic molecule stock solutions were prepared in DMSO as described above and diluted in DMEM to afford a range of concentrations. The solutions of EGFP-mRNA/amphiphilic molecule complexes were freshly prepared prior to the transfection experiments. 35 μL of the corresponding amphiphile were added to 10 μL of a solution of EGFP-mRNA at 10 ng/μL in DMEM. The mixture was shaken for 30 min at room temperature before the addition to the cells. The cell medium was aspirated, and cells were washed with PBS twice. Cells were covered with 39 μL of DMEM and 11 μL of the complex's solution were added to the cells and incubated for 4 h (final concentration of peptide=2.5, 5 and 10 μM; final concentration of EGFP-mRNA=25 ng/well). After the incubation, the medium was replaced by 100 μL of fresh DMEM supplemented with 10% FBS. The total EGFP fluorescence was quantified after 72 h in a well plate reader. Amphiphile transfection efficiency was compared and normalized to Lipofectamine® MessengerMax efficiency (value of 1 in Tables 1-5 and 7; double underlined numbers). All experiments were done in triplicate.
as §1
Tables 14-19 show the mean (triplicates) fluorescence intensity measured after the transfection of EGFP mRNA by different amphiphiles at different concentrations in a variety of cell lines. Background fluorescence values, accounted by untreated control cells, were subtracted for processing.

Row | Substance | percentage of gene editing, GFP fluorescence intensity decrease (% of reduction) ([1]; Dodecanal, 10 μM) [%] | percentage of gene editing, GFP fluorescence intensity decrease (% of reduction) ([1]; Dodecanal, 15 μM) [%] | percentage of gene editing, GFP fluorescence intensity decrease (% of reduction) ([1]; Myristoleyl, 5 μM) [%] | percentage of gene editing, GFP fluorescence intensity decrease (% of reduction) ([1]; Myristoleyl, 10 μM) [%] | percentage of gene editing, GFP fluorescence intensity decrease (% of reduction) ([1]; Myristoleyl, 15 μM) [%] | mean fluorescence intensity (EGFP mRNA) (A549 cells; Dodecanal, 2.5 μM) | mean fluorescence intensity (EGFP mRNA) (A549 cells; Dodecanal, 5 μM) | mean fluorescence intensity (EGFP mRNA) (A549 cells; Dodecanal, 10 μM) | mean fluorescence intensity (EGFP mRNA) (A549 cells; Myristoleyl, 2.5 μM) | mean fluorescence intensity (EGFP mRNA) (A549 cells; Myristoleyl, 5 μM) | mean fluorescence intensity (EGFP mRNA) (A549 cells; Myristoleyl, 10 μM) | percentage of gene editing, GFP fluorescence intensity decrease (% of reduction) ([1]; Oleyl, 15 μM) [%] | percentage of gene editing, GFP fluorescence intensity decrease (% of reduction) ([1]; Palmitoleyl, 15 μM) [%] | percentage of gene editing, GFP fluorescence intensity decrease (% of reduction) ([1]; Petroselinyl, 10 μM) [%] | percentage of gene editing, GFP fluorescence intensity decrease (% of reduction) ([1]; Petroselinyl, 15 μM) [%] | mean fluorescence intensity (EGFP mRNA) (A549 cells; Oleyl, 2.5 μM) | mean fluorescence intensity (EGFP mRNA) (A549 cells; Oleyl, 5 μM) | mean fluorescence intensity (EGFP mRNA) (A549 cells; Petroselinyl, 2.5 μM) | mean fluorescence intensity (EGFP mRNA) (A549 cells; Petroselinyl, 5 μM) | mean fluorescence intensity (EGFP mRNA) (A549 cells; Petroselinyl, 10 μM) | other results
1 | Ac-RK*LRRK*L-NH2 (Ac-RK(NHNH2)LRRK(NHNH2)L-NH2; not fully specified; printed as Ac-RK*LRRK*L-NH2; also: K*2,K*6: native or modified lysine (ε-amide to a linker)) [Peptide 7.2] | −3 | −13 | 3 | 7 | 7 | 428 | −205 | −3 | 1101 | 231 | 123 |  |  |  |  |  |  |  |  |  | 
2 | Ac-RK*LRRK*LRK*-NH2 (Ac-RK(NHNH2)LRRK(NHNH2)LRK(NHNH2)-NH2; not fully specified; printed as Ac-RK*LRRK*LRK*-NH2; also: K*2,K*6,K*9: native or modified lysine (ε-amide to a linker)) [Peptide 9.3] | 0 | 25 | 13 | 17 | 50 |  |  |  |  | 219 | −17 | 18 | 39 | 13 | 47 | 89 | 399 | 94 | 789 | 349 | mean fluorescence intensity (EGFP mRNA) (A549 cells; Oleyl, 10 μM): 139
3 | Ac-RK*LRRLLRK*-NH2 (Ac-RK(NHNH2)LRRLLRK(NHNH2)-NH2; not fully specified; printed as Ac-RK*LRRLLRK*-NH2; also: K*2,K*9: native or modified lysine (ε-amide to a linker)) [Peptide 9.2] | −22 | 4 | 9 | 7 | 14 |  |  |  |  | 205 | −79 |  |  |  |  |  |  |  |  |  | 
4 | Ac-RRHK*RLK*RRLK*RL-NH2 (Ac-RRHK(NHNH2)RLK(NHNH2)RRLK(NHNH2)RL-NH2; not fully specified; printed as Ac-RRHK*RLK*RRLK*RL-NH2; also: K*4,K*7,K*11: native or modified lysine (ε-amide to a linker)) [13(Leu-His)] |  |  | 13 | 20 | 45 | 2133 | 803 | 170 | 882 | 370 | 569 |  | 21 | 16 | 42 |  |  | 1141 | 437 | 245 | percentage of gene editing, GFP fluorescence intensity decrease (% of reduction) ([1]; Petroselinyl, 5 μM): 13%; mean fluorescence intensity (EGFP mRNA) (A549 cells; Palmitoleyl, 2.5 μM): 1406; mean fluorescence intensity (EGFP mRNA) (A549 cells; Palmitoleyl, 5 μM): 916; mean fluorescence intensity (EGFP mRNA) (A549 cells; Palmitoleyl, 10 μM): 617
5 | Ac-RRLK*RLK*RRLK*RL-NH2 [Peptide 13.3] | 20 |  | 21 | 33 | 62 | 298 |  |  |  | 170 | 240 | 48 | 48 | 32 | 56 | 214 |  | 245 | 117 | 107 | percentage of gene editing, GFP fluorescence intensity decrease (% of reduction) ([1]; Oleyl, 10 μM): 14%; percentage of gene editing, GFP fluorescence intensity decrease (% of reduction) ([1]; Palmitoleyl, 10 μM): 33%; percentage of gene editing, GFP fluorescence intensity decrease (% of reduction) ([1]; Petroselinyl, 5 μM): 12%
6 | Ac-RRLK*RLLRRLK*RL-NH2 (Ac-RRLK(NHNH2)RLLRRLK(NHNH2)RL-NH2; not fully specified; printed as Ac-RRLK*RLLRRLK*RL-NH2; also: K*4,K*11: native or modified lysine (ε-amide to a linker)) [Peptide 13.2] |  |  |  |  |  |  |  |  |  |  |  | 4 |  |  |  | 136 | 160 |  |  |  | percentage of gene editing, GFP fluorescence intensity decrease (% of reduction) ([1]; Oleyl, 5 μM): 10%; percentage of gene editing, GFP fluorescence intensity decrease (% of reduction) ([1]; Oleyl, 10 μM): 12%; mean fluorescence intensity (EGFP mRNA) (A549 cells; Oleyl, 10 μM): 22
